Test results published in patent US4552843A, “Process for producing an acidic polycyclic ether antibiotic by cultivation of a novel strain of Streptomyces endus subspecies aureus” (Pfizer Inc., priority 1984, dated 1985).

Columns and labels:
rumen fluid = experiment: in vitro rumen technique, propionic acid production; parameters: species or system calf
Protocol: The value of animal feeds generally has been determined directly by feeding the animal. British Pat. No. 1,197,826 details an in vitro rumen technique whereby the changes occurring in feeds brought about by microorganisms are measured more readily and with great accuracy in the evaluation of animal feeds. This technique involves the use of an apparatus in which the digestive processes of the animals are conducted and studied in vitro. The animal feeds, rumen inoculum and various growth promotants are introduced into and withdrawn from a laboratory unit under carefully controlled conditions and the changes taken place are studied critically and progressively during the consumption of the feed by the microorganisms. […] The change in propionic acid content is expressed as percent of the propionic acid content found in the control rumen fluid. Long term in vivo feeding studies are used to show a reliable correlation between propionic acid increase in the rumen fluid and improved animal performance.
Rumen fluid is collected from a fistulated calf which is fed on a commercial fattening ration plus hay. The rumen fluid is immediately filtered through cheese cloth, and 10 ml added to a 50 ml conical flask containing 400 mg of standard substrate (68% corn starch +17% cellulose +15% extracted soybean meal), 10 ml of a pH 6.8 buffer and the test compound. The flasks are gassed with oxygen free nitrogen for about two minutes, and incubated in a shaking water bath at 39° C. for about 16 hours. All tests are conducted in triplicate.
After incubation, 5 ml of the sample is mixed with 1 ml of 25% metaphosphoric acid. After 10 minutes 0.25 ml of formic acid is added and the mixture centrifuged at 1500 RPM for 10 minutes. Samples are then analyzed by gas-liquid chromatography by the method of D. W. Kellog, J. Dairy Science, 52, 1690 (1969). Peak heights for acetic, propionic and butyric acids are determined for samples from untreated and treated incubation flasks.

Eimeria tenella = experiment: efficacy against coccidial infections in chickens (Table II); format: in vivo; conditions: for Ratio: lesion score treated / infected control; for % Weight Gain / Average Degree of Infection: chicks; for Average Degree of Infection: lesion score 0 to 4, six days
Protocol: (§1) Efficacy data for Antibiotic CP-63,517 and its salts against coccidial infections in chickens was obtained in the following fashion. Groups of 3-5 ten-day old SPF white leghorn cockerel chicks were fed a mash diet containing Antibiotic CP-63,517, its sodium and/or potassium salt, or the known agents Monensin or Stenorol uniformly dispersed therein. After being on this ration for 24 hours each chick was inoculated per os with oocysts of the particular species of Eimeria being tested. Other groups of 3-5 ten-day old chicks were fed a similar mash diet free of any test compound. They were also infected after 24 hours and served as infected controls. Yet another group of 3-5 ten-day old chicks were fed the mash diet free of any test compound and were not infected with coccidia. These served as normal controls. The results of treatment were evaluated after five days in the case of E. acervulina, and six days for other challenges.
(§2) ^1 The criteria used to measure anticoccidial activity consisted of
(§3) lesion scores of 0 to 4 for Eimeria tenella after J. E. Lynch, "A New
(§4) Method for the Primary Evaluation of Anticoccidial Activity", Am. J. Vet.
(§5) modification of the scoring system devised by J. Johnson and W. H. Reid,
(§6) "Anticoccidial Drugs. Lesion Scoring Techniques in Battery and Floor Pen
(§7) Experiments in Chicks", Exp. Parasit. 28: 30-36 (1970). A constant ratio
(§8) was established by dividing the lesion score of each treated group by the
(§9) lesion score of the infected control.

Eimeria acervulina = experiment: as above; format: in vivo; conditions: 9 ppm in diet; for Ratio: lesion score treated / infected control; for % Weight Gain / Average Degree of Infection: chicks; for Average Degree of Infection: lesion score 0 to 3, five days
Protocol: as §1, §2, §3, §4, §5, §6, §7, §8, §9

[1] = 53 ppm in diet, replicate (in parentheses)
[2] = 120 ppm in diet, replicate (in parentheses)
[3] = 0.75 ppm in diet, replicate (in parentheses)
[4] = 3 ppm in diet, replicate (in parentheses)
[5] = 9 ppm in diet, replicate (in parentheses)

CC[C@@H](C(=O)[C@@H](C)[C@@H](O)[C@H](C)[C@@H]1O[C@@H]([C@@H](CC)C(=O)O)CC[C@@H]1C)[C@H]1O[C@]2(C=C[C@@H](O)[C@]3(CC[C@@](C)([C@H]4CC[C@](O)(CC)[C@H](C)O4)O3)O2)[C@H](C)C[C@@H]1C [Salinomycin, reference compound]
increase in propionic acid (rumen fluid; 10 μg/ml, comparison with Salinomycin): about 65%

CC[C@@]1([C@@H]2O[C@@H]([C@H]3O[C@@](O)(CO)[C@H](C)C[C@@H]3C)C[C@@H]2C)CC[C@H]([C@]2(C)CC[C@]3(C[C@H](O)[C@@H](C)[C@@H]([C@@H](C)[C@@H](OC)[C@H](C)C(=O)O)O3)O2)O1 [Monensin]
Ratio (Eimeria tenella; 53 ppm in diet): 0.69 | Ratio (Eimeria tenella; [1]): 0.54 | Ratio (Eimeria tenella; 120 ppm in diet): 0.09 | Ratio (Eimeria tenella; [2]): 0.32 | % Weight Gain (Eimeria tenella; 53 ppm in diet): 92% | Average Degree of Infection (Eimeria tenella; 53 ppm in diet): 2.3 | Average Degree of Infection (Eimeria tenella; [1]): 1.7 | % Weight Gain (Eimeria tenella; [1]): 99% | % Weight Gain (Eimeria tenella; 120 ppm in diet): 71% | Average Degree of Infection (Eimeria tenella; 120 ppm in diet): 0.3 | Average Degree of Infection (Eimeria tenella; [2]): 1.0 | % Weight Gain (Eimeria tenella; [2]): 68% | increase in production of propionic acid over control (rumen fluid; 10 micrograms per milliliter (10 μg/ml), comparison with Monensin): about 20%

O=C(CC1NCCCC1O)Cn1cnc2cc(Br)c(Cl)cc2c1=O (centres unmarked) [Stenorol]
Ratio (Eimeria acervulina): 0.0 | Ratio (Eimeria acervulina; replicate (in parentheses)): 0.0 | % Weight Gain (Eimeria acervulina): 48% | Average Degree of Infection (Eimeria acervulina): 0.0 | Average Degree of Infection (Eimeria acervulina; replicate (in parentheses)): 0.0 | % Weight Gain (Eimeria acervulina; replicate (in parentheses)): 51% | Ratio (Eimeria tenella; 0.75 ppm in diet): 0.51 | Ratio (Eimeria tenella; [3]): 0.73 | Ratio (Eimeria tenella; 3 ppm in diet): 0.0 | Ratio (Eimeria tenella; [4]): 0.0 | Ratio (Eimeria tenella; 9 ppm in diet): 0.0 | Ratio (Eimeria tenella; [5]): 0.0 | % Weight Gain (Eimeria tenella; 0.75 ppm in diet): 66% | Average Degree of Infection (Eimeria tenella; 0.75 ppm in diet): 1.7 | Average Degree of Infection (Eimeria tenella; [3]): 2.3 | % Weight Gain (Eimeria tenella; [3]): 90% | % Weight Gain (Eimeria tenella; 3 ppm in diet): 86% | Average Degree of Infection (Eimeria tenella; 3 ppm in diet): 0.0 | Average Degree of Infection (Eimeria tenella; [4]): 0.0 | % Weight Gain (Eimeria tenella; [4]): 103% | % Weight Gain (Eimeria tenella; 9 ppm in diet): 63% | Average Degree of Infection (Eimeria tenella; 9 ppm in diet): 0.0 | Average Degree of Infection (Eimeria tenella; [5]): 0.0 | % Weight Gain (Eimeria tenella; [5]): 77%
